# Laboratory results from ChEMBL document CHEMBL4321845, “Discovery and Characterization of Potent Pan-Genotypic HCV NS5A Inhibitors Containing Novel Tricyclic Central Core Leading to Clinical Candidate” (J Med Chem, 2019).
# Experiments:
# [1] = biological target: T1, Nonstructural protein 5A (Hepatitis C virus) (UniProt Q5L478); test: Inhibition of NS5A in HCV genotype 2a infected in human Huh7.5/J6/JFH1/EMCVIRES/hRlucNeo cells assessed as inhibition of replicon levels at 1 uM incubated for 72 hrs by luciferase reporter gene assay; conditions: Hepatitis C virus subtype 2a
# T1 sequence (whole entry): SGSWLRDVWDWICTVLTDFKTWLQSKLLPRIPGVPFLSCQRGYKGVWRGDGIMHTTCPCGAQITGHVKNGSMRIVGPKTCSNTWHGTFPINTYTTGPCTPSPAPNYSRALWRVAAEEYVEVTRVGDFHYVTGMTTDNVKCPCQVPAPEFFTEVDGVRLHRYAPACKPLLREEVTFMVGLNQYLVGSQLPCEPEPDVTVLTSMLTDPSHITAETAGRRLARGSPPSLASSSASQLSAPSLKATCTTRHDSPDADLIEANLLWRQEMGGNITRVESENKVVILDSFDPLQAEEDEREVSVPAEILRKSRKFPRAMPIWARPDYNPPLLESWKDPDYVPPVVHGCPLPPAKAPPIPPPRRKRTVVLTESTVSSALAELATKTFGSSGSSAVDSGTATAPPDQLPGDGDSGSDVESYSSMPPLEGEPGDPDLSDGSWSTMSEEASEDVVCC
# [2] = biological target: T1, Nonstructural protein 5A (Hepatitis C virus); test: Inhibition of NS5A in HCV genotype 1b infected in human HuH7.5/Con1/SG-Neo(I)-hRluc2aUb cells assessed as inhibition of replicon levels at 1 uM incubated for 72 hrs by luciferase reporter gene assay relative to control; conditions: Hepatitis C virus subtype 1b
# [3] = Clearance in rat at 1 mg/kg, iv measured up to 24 hrs by LC-MS/MS analysis; format: ADME, organism-based; conditions: in vivo
# [4] = Half life in rat at 1 mg/kg, iv measured up to 24 hrs by LC-MS/MS analysis; format: ADME, organism-based; conditions: in vivo
# [5] = Oral bioavailability in rat at 10 mg/kg measured up to 24 hrs by LC-MS/MS analysis; format: ADME, organism-based; conditions: in vivo
# [6] = Cytotoxicity in human HEK293 cells assessed as inhibition of cell growth at 10 uM incubated for 72 hrs by CCK8 assay relative to control; format: cell-based; conditions: read-out: GI
# CYP2C9 = CYP2C9 (Homo sapiens, UniProt P11712); test: Inhibition of CYP2C9 in pooled human liver microsomes at 10 uM pre-incubated for 5 mins before NADPH addition and measured after 10 mins by UPLC-MS/MS analysis relative to control; format: ADME
# Chain of CYP2C9 (P11712 whole entry): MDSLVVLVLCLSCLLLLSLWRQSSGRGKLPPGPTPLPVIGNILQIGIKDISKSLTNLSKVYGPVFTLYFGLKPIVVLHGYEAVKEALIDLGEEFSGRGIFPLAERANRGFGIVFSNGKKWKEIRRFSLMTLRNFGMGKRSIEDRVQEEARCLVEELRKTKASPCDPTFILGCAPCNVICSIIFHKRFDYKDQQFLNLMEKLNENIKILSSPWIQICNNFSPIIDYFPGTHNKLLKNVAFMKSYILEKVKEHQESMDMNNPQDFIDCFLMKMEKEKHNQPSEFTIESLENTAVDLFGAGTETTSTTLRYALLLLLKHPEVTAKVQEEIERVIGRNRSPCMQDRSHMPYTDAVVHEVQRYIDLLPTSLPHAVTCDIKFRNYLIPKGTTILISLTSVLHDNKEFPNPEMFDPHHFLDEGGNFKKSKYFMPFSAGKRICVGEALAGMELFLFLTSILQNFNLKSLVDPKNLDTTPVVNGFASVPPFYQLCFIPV
# [7] = Volume of distribution at steady state in rat at 1 mg/kg, iv measured up to 24 hrs by LC-MS/MS analysis; format: ADME, organism-based; conditions: in vivo, read-out: Vdss
# CYP3A4 = CYP3A4 (Homo sapiens, UniProt P08684); test: Inhibition of CYP3A4 in pooled human liver microsomes at 10 uM pre-incubated for 5 mins before NADPH addition and measured after 10 mins by UPLC-MS/MS analysis relative to control; format: ADME
# Chain of CYP3A4 (P08684 whole entry): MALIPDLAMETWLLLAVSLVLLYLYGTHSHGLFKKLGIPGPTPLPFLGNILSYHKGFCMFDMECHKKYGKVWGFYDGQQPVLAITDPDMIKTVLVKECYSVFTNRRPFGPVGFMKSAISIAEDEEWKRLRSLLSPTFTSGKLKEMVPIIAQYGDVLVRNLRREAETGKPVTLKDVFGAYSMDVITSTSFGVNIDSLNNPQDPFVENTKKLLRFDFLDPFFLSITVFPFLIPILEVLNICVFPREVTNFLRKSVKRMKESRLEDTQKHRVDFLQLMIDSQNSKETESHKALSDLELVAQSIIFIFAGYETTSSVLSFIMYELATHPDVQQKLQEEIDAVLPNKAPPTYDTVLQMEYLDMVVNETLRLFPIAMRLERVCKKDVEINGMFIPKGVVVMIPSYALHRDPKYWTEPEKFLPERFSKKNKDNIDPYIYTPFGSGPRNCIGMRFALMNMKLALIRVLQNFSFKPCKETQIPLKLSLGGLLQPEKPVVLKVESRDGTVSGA
# [8] = Drug level in plasma of Wistar rat at 10 mg/kg, po measured at 4 hrs by LC-MS/MS analysis; format: ADME, organism-based
# [9] = Drug level in liver of Wistar rat at 10 mg/kg, po measured at 4 hrs by LC-MS/MS analysis; format: ADME, organism-based; conditions: read-out: Drug uptake
# [10] = Cytotoxicity in human HepG2 cells assessed as inhibition of cell growth at 10 uM incubated for 72 hrs by CCK8 assay relative to control; format: cell-based; conditions: read-out: GI
# [11] = Ratio of dug level in liver to plasma of Wistar rat at 10 mg/kg, po measured at 4 hrs by LC-MS/MS analysis; format: ADME, organism-based
# [12] = Drug metabolism in rat liver microsomes assessed as metabolic rate at 1 uM preincubated for 5 mins before NADPH addition and measured up to 30 mins by LC-MS/MS analysis; format: ADME, Microsome; conditions: 0.5 h
# [13] = AUC (last) in rat at 10 mg/kg, po measured up to 24 hrs by LC-MS/MS analysis; format: ADME, organism-based; design: dose 10 mg/kg, time 0 - last, route oral; conditions: in vivo
# [14] = AUC(last) in rat at 1 mg/kg, iv measured up to 24 hrs by LC-MS/MS analysis; format: ADME, organism-based; design: dose 1 mg/kg, route intravenous, time 0 - last; conditions: in vivo
# [15] = Cmax in rat at 10 mg/kg, po measured up to 24 hrs by LC-MS/MS analysis; format: ADME, organism-based; design: dose 10 mg/kg, route oral; conditions: in vivo
# [16] = Drug metabolism in human liver microsomes assessed as metabolic rate at 1 uM preincubated for 5 mins before NADPH addition and measured up to 30 mins by LC-MS/MS analysis; format: ADME, Microsome; conditions: 0.5 h
# [17] = Drug level in liver of Wistar rat at 10 mg/kg, po measured up to 8 hrs by LC-MS/MS analysis; format: ADME, organism-based; conditions: in vivo
# [18] = Cytotoxicity in human HepG2 cells assessed as inhibition of cell growth at 3 uM incubated for 72 hrs by CCK8 assay relative to control; format: cell-based; conditions: read-out: GI
# CYP2D6 = CYP2D6 (Homo sapiens, UniProt P10635); test: Inhibition of CYP2D6 in pooled human liver microsomes at 10 uM pre-incubated for 5 mins before NADPH addition and measured after 10 mins by UPLC-MS/MS analysis relative to control; format: ADME
# Chain of CYP2D6 (P10635 whole entry): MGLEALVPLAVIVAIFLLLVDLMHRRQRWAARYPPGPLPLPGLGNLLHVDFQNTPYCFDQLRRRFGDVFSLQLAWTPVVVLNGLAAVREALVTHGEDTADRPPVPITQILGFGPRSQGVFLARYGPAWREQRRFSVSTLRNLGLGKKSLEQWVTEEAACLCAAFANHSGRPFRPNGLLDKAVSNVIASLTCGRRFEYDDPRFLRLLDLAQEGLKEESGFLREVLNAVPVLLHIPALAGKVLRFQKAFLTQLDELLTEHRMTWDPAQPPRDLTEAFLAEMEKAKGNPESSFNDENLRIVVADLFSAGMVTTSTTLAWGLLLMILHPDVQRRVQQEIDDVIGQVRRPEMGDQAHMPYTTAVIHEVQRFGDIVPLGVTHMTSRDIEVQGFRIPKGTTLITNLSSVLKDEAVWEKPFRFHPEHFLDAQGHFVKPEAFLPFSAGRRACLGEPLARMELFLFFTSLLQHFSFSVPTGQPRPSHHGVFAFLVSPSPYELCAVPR
# [19] = Cytotoxicity in human HuH7 cells assessed as inhibition of cell growth at 3 uM incubated for 72 hrs by CCK8 assay relative to control; format: cell-based, Huh-7; conditions: read-out: GI
# [20] = Cytotoxicity in human HEK293 cells assessed as inhibition of cell growth at 3 uM incubated for 72 hrs by CCK8 assay relative to control; format: cell-based; conditions: read-out: GI
# [21] = Protein binding in human plasma; format: ADME, cell-free; conditions: read-out: PPB
# [22] = Protein binding in rat plasma; format: ADME, cell-free; conditions: read-out: PPB
# [23] = biological target: T1, Nonstructural protein 5A (Hepatitis C virus); test: Inhibition of NS5A in HCV genotype 1b infected in human HuH7.5/Con1/SG-Neo(I)-hRluc2aUb cells assessed as inhibition of replicon levels at 0.1 uM incubated for 72 hrs by luciferase reporter gene assay relative to control; conditions: Hepatitis C virus subtype 1b
# [24] = Tmax in rat at 10 mg/kg, po measured up to 24 hrs by LC-MS/MS analysis; format: ADME, organism-based; conditions: in vivo
# [25] = AUC (last) in rat at 30 mg/kg, po measured up to 24 hrs by LC-MS/MS analysis; format: ADME, organism-based; design: dose 30 mg/kg, time 0 - last, route oral; conditions: in vivo
# [26] = Cmax in rat at 100 mg/kg, po measured up to 24 hrs by LC-MS/MS analysis; format: ADME, organism-based; design: dose 100 mg/kg, route oral; conditions: in vivo
# [27] = Half life in beagle dog at 1 mg/kg, iv measured up to 24 hrs by LC-MS/MS analysis; format: ADME, organism-based, Canis lupus familiaris; conditions: in vivo
# [28] = Oral bioavailability in beagle dog at 10 mg/kg measured up to 24 hrs by LC-MS/MS analysis; format: ADME, organism-based, Canis lupus familiaris; conditions: in vivo
# [29] = AUC (last) in beagle dog at 10 mg/kg, po measured up to 24 hrs by LC-MS/MS analysis; format: ADME, organism-based, Canis lupus familiaris; design: dose 10 mg/kg, time 0 - last, route oral; conditions: in vivo
# [30] = AUC(last) in beagle dog at 1 mg/kg, iv measured up to 24 hrs by LC-MS/MS analysis; format: ADME, organism-based, Canis lupus familiaris; design: dose 1 mg/kg, route intravenous, time 0 - last; conditions: in vivo
# [31] = Cmax in rat at 30 mg/kg, po measured up to 24 hrs by LC-MS/MS analysis; format: ADME, organism-based; design: dose 30 mg/kg, route oral; conditions: in vivo
# [32] = Clearance in beagle dog at 1 mg/kg, iv measured up to 24 hrs by LC-MS/MS analysis; format: ADME, organism-based, Canis lupus familiaris; conditions: in vivo
# [33] = Tmax in rat at 100 mg/kg, po measured up to 24 hrs by LC-MS/MS analysis; format: ADME, organism-based; conditions: in vivo
# [34] = Tmax in rat at 30 mg/kg, po measured up to 24 hrs by LC-MS/MS analysis; format: ADME, organism-based; conditions: in vivo
# [35] = AUC (last) in rat at 100 mg/kg, po measured up to 24 hrs by LC-MS/MS analysis; format: ADME, organism-based; design: dose 100 mg/kg, time 0 - last, route oral; conditions: in vivo
# [36] = Cmax in beagle dog at 10 mg/kg, po measured up to 24 hrs by LC-MS/MS analysis; format: ADME, organism-based, Canis lupus familiaris; design: dose 10 mg/kg, route oral; conditions: in vivo
# [37] = Volume of distribution at steady state in beagle dog at 1 mg/kg, iv measured up to 24 hrs by LC-MS/MS analysis; format: ADME, organism-based, Canis lupus familiaris; conditions: in vivo, read-out: Vdss
Structure (SMILES),inhibition [1] [%],clearance [3] [mL/min/kg],half-life [4] [h],bioavailability [5] [%],"inhibition at 72 h, 10 µM [6] [%]","inhibition at 10 min, 10 µM (CYP2C9) [%]",Vd [7] [L/kg],"inhibition at 10 min, 10 µM (CYP3A4) [%]",concentration at 4 h [8] [nM],concentration at 4 h [9] [nM],"inhibition at 72 h, 10 µM [10] [%]",Kp at 4 h [11],Drug metabolism [12] [nmol/min/mg],AUC(0-t) at 24 h [13] [µM·h],AUC(0-t) at 24 h [14] [µM·h],Cmax [15] [nM],Drug metabolism [16] [nmol/min/mg],Drug uptake [17],"inhibition at 72 h, 3 µM [18] [%]","inhibition at 10 min, 10 µM (CYP2D6) [%]",also measured
COC(=O)N[C@H](C(=O)N1CCC[C@H]1c1ncc(-c2cc3c(cc2OC)C2(CC3(C)C)CC(C)(C)c3cc(-c4cnc([C@@H]5CCCN5C(=O)[C@@H](NC(=O)OC)C(C)C)[nH]4)c(OC)cc32)[nH]1)C(C)C,13,,,,,,,,,,,,,,,,,,,,inhibition [2]: 79%
COC(=O)N[C@H](C(=O)N1CCC[C@H]1c1ncc(-c2ccc3c(c2)OCC(C)(C)COc2cc(-c4cnc([C@@H]5CCCN5C(=O)[C@@H](NC(=O)OC)C(C)C)[nH]4)ccc2-3)[nH]1)C(C)C,,17,2.1,47,33,0,2.3,0,620,7600,35,13,0.01,5.2,1.1,1900,0.02,Active,8,17,"inhibition at 72 h, 3 µM [19]: 4%; inhibition at 72 h, 3 µM [20]: 17%"
COC(=O)N[C@H](C(=O)N1CCC[C@H]1c1nc(Cl)c(-c2ccc3c(c2)OCC(C)(C)COc2cc(-c4[nH]c([C@@H]5CCCN5C(=O)[C@@H](NC(=O)OC)C(C)C)nc4Cl)ccc2-3)[nH]1)C(C)C,,37,3.8,56,63,29,10,6,640,7100,27,11,0,2.4,0.43,500,0,Active,23,6,"fraction unbound [21]: < 0.01; fraction unbound [22]: < 0.01; inhibition at 72 h, 3 µM [19]: 25%; inhibition at 72 h, 3 µM [20]: 44%"
COC(=O)N[C@H](C(=O)N1CCC[C@H]1c1ncc(-c2ccc3c(ccc4sc(-c5cnc([C@@H]6CCCN6C(=O)[C@@H](NC(=O)OC)C(C)C)[nH]5)nc43)c2)[nH]1)C(C)C,0,,,,,,,,,,,,,,,,,,,,
COC(=O)N[C@H](C(=O)N1CCC[C@H]1c1ncc(-c2ccc3c(c2)CC2c4ccc(-c5cnc([C@@H]6CCCN6C(=O)[C@@H](NC(=O)OC)C(C)C)[nH]5)cc4CC32)[nH]1)C(C)C (some centres undefined),11,,,,,,,,,,,,,,,,,,,,inhibition [23]: 75%
COC(=O)N[C@H](C(=O)N1CCC[C@H]1c1ncc(-c2ccc3c(c2)OCc2cc(-c4cnc([C@@H]5CCCN5C(=O)[C@@H](NC(=O)OC)C(C)C)[nH]4)sc2-3)[nH]1)C(C)C,,10,1.9,30,22,41,1.5,22,1390,7900,16,5.5,0.01,2 to 6,2,300 to 2000,0.02,Active,0,13,"Tmax [24]: 2 to 4 h; AUC(0-t) at 24 h [25]: 28 µM·h; Cmax [26]: 7000 nM; half-life [27]: 3 h; bioavailability [28]: 100%; AUC(0-t) at 24 h [29]: 40 µM·h; AUC(0-t) at 24 h [30]: 3 µM·h; Cmax [31]: 2000 nM; clearance [32]: 7 mL/min/kg; Tmax [33]: 2 to 6 h; Tmax [34]: 4 to 6 h; AUC(0-t) at 24 h [35]: 76 µM·h; Cmax [36]: 3000 nM; Vd [37]: 2 L/kg; inhibition at 72 h, 3 µM [19]: 3%; inhibition at 72 h, 3 µM [20]: 14%"
